Assay [1] deals with dsRed+ LSCs. In words: Syngeneic transplantation of compound-treated triple cocultures, leukemia onset / survival. It is filed as in vivo, mice. The note with it: cocultures treated 48 hours ex vivo, then transplanted; vs DMSO. Here is the method:
Heterotypic cocultures containing dsRed+ LSCs, CD45.1+ HSPCs, and GFP+ MSCs were exposed to compounds for 48 hours, then transplanted en masse post trypsinization with untreated wild-type helper splenocytes (CD45.1+CD45.2+) into lethally irradiated, wildtype recipient animals (CD45.2+). Latency of leukemia onset was compared for mice receiving cocultures treated with compound compared to DMSO control treated cocultures. The engraftment of the normal HSPCs treated and injected along with the leukemia cells was quantified by FACs analysis of the bone marrow of mice alive at the 16 week endpoint across treatments.
As in vivo readouts may better reflect hematopoietic stem cell function compared to in vitro readouts (Purton, L. E., and Scadden, D. T. (2007). Cell Stem Cell 1, 263-270.; Bock, T. A. (1997). Stem Cells 15 Suppl 1, 185-195.), our results were confirmed using murine transplantation studies. […] Compounds that increase disease latency relative to DMSO control are considered active. […] Bone marrow repopulating ability is a functional measure of normal HSPCs, assessed by quantifying long-term engraftment and differentiation patterns in recipient mice (Bock, T. A. (1997). Stem Cells 15 Suppl 1, 185-195.; Nguyen, L. V., Vanner, R., Dirks, P., and Eaves, C. J. (2012). Nat Rev Cancer 12, 133-143.). […]

Assay [2] has as its system LSC-enriched leukemia cells (MLL-AF9). In words: Leukemia coculture assay on primary MSC stroma (cobblestoning readout). It is filed as cell-based, murine. Particulars: for IC50: read-out: Leukemia IC50; for leukemia-selective activity in coculture vs normal HSPCs: primary MSC stroma. Here is the method: Whole bone marrow were harvested from C57/B16 actin-dsRed mice (006051, Jackson Labs), subjected to red blood cell lysis (Qiagen), then granulocyte-macrophage progenitors (GMPs) were isolated by Fluorescence-activated cell sorting (FACsAria, Becton Dickinson). GMPs were spinfected twice (2500 rpm, 90 min, 37 C) in the presence of mIL3 (10 ng/ml, Peprotech), mIL6 (10 ng/ml, Peprotech), and mSCF (10 ng/ml, Peprotech) with pMSCV-MLL-AF9-Neo virus then transplanted into lethally irradiated C57/B16 recipients. After disease onset, the spleens were harvested and transplanted into sublethally irradiated secondary recipients. Subsequent transplantation of bulk spleen cells from leukemic secondary mice was repeated twice to generate leukemic GMPs from quaternary transplant leukemic mouse bone marrow.
Long bones and hips from moribund leukemic mice were harvested, cleaned, crushed and sequentially passed through 100 and 70 μM filters (Falcon). The cells were RBC lysed (Qiagen) and stained in PBS+2% FBS (Omega). Antibodies included lineage markers CD4, CD8, Gr1, Mac1, IL-7R, and Ter119 (Caltag), c-kit (17-1172-83, eBioscience), Sca-1 (11-5981-82, eBioscience), CD34 (11-0341-85, eBioscience), and CD16/32 (25-0161-82, eBioscience). Hoechst 33258 (H21491, Invitrogen) was also used, to identify live cells. Cells were sorted on a FacsAria II (Becton Dickinson).
The humerii, tibiae, ilia, femurs, and spine were isolated from actin-GFP mice (000329, Jackson Lab) crushed using a mortar and pestle, washed in phosphate-buffered saline (PBS) without magnesium and calcium (Gibco) with 0.5% fetal bovine serum (FBS) (HyClone) and filtered through a 70-μm filter. Red blood cell lysis was performed with ammonium-chloride/potassium-chloride (ACK) lysing buffer (Lonza), the cells were resuspended in α-MEM (StemCell Technologies), 20% FBS (HyClone) and 1× Pen-Strep (CellGro), plated in 25 ml in 150-cm^2 tissue-culture flasks (three per mouse), and incubated at 33° C. with 5% CO2. After 2-3 days, the medium was replaced with fresh α-MEM with 20% FBS. After 8-14 days, the cells were rinsed, split by trypsinization (CellGro), pooled, filtered through a 70 μm filter, replated at 3-4 million cells per 150-cm^2 tissue-culture flask, and grown at 33° C. with 5% CO2 for 3-4 days until nearly confluent. The cells were trypsinized, filtered, and resuspended in 0.5% FBS in PBS with biotin-conjugated anti-mouse CD105 antibody (eBioscience) for 15-30 minutes at room temperature. The CD105-labeled cells were incubated with Dynabead M-280 streptavidin-linked magnetic beads (Invitrogen) for 15-30 minutes at 4° C. with agitation and isolated using magnetic separation and rinsed once. The CD105^+ cell fraction was replated at 1-2 million cells per 150-cm^2 tissue-culture flask and incubated at 33° C. with 5% CO2 for 2-3 days.
The MSCs were trypsinized, filtered, diluted in phenol-red-free alpha-MEM with 20% FBS, and plated (30 μl for a total of 2000 cells per well) on 384-well clear-bottomed black tissue-culture treated plate (3712, Corning) pretreated with fibronectin (Millipore). Plate covers (VWR) were added, the plates were spun and at 500 with slow braking, and the cells were incubated at room temperature for 60-90 minutes before incubation at 33° C. with 5% CO2 for 3 days prior to hematopoietic cell plating. […]

[3] abbreviates: Mus musculus, MLL-AF9, LSCs on primary MSC stroma, 8-point dose.

Like-named read-outs stand apart in the source and are kept apart here. Bounds are passed on as bounds.

In the case of `CC1(C)C(C(=O)Nc2ccc(S(=O)(=O)c3ccc(NC(=O)C4C(C)(C)C4(C)C)cc3)cc2)C1(C)C` [BRD7116], the “latency of leukemia onset / survival of recipient mice” value in assay [1] was “mild, but statistically significant prolonged latency of leukemia onset”. Moreover, the half-maximal inhibitory concentration (IC50) in assay [2] (setting [3]) was found to be 0.204 µM. Further, the “leukemia-selective activity in coculture vs normal HSPCs” value in assay [2] was “selective loss of the LSC-enriched leukemia cells”.

Take `CCC(C)C(=O)OC1CC(C)C=C2C=CC(C)C(CCC(O)CC(O)CC(=O)O)C21` (centres unmarked) [Lovastatic acid]: in assay [1], the “latency of leukemia onset / survival of recipient mice” value is recorded as “survived substantially longer than the DMSO control group”. Further, the IC50 in assay [2] (LSCs on primary MSC stroma, 8-point dose) is 0.167 µM; in assay [2] (setting [3]) it was less than 0.2 µM; in assay [2] (Mus musculus, MLL-AF9, statins (acid form), LSCs cocultured on primary MSC stroma) it was less than 0.2 µM. Further, the “leukemia-selective activity in coculture vs normal HSPCs” value in assay [2] was “leukemia-selective activity”.
